Results taken from US20150087606A1, “PHARMACEUTICAL COMPOSITION FOR PREVENTING OR TREATING AMYLOID BETA PEPTIDE-ASSOCIATED DISEASES OR CONDITIONS” (Sinphar Tian-Li Pharmaceutical Co., Ltd. (Hangzhou), priority 2011, published 2015).
“Also recorded” adds a separate entry of the source.

Columns and labels:
[1] = test system: extracellular Aβ1-40 accumulation, SH-SY5Y cells; experiment: Effect of each test sample on extracellular Aβ1-40 accumulation (Human Aβ1-40 immunoassay of the medium); type: cell-based
Method: Wild-type human neuroblastoma cells (SH-SY5Y) were cultured in Eagle's Minimum essential Medium (EMEM)/Ham's F12 medium (1:1 mixture) (containing 10% FBS, 10 units/ml penicillin, 10 μg/ml Streptomycin). Wild-type mouse neuroblastoma Neuro-2a cells were cultured in minimum essential medium (MEM) (containing 10% FBS, 10 units/ml penicillin, 10 μg/ml Streptomycin).
The medium of the wild-type human neuroblastoma SH-SY5Y cells in Example 1 were switched into chemical defined medium (EMEM/F12 medium (Cat. No. 12500-062), Hepes 5 mM, Glucose 0.6%, NaHCO3 3 mM, Glutamine 2.5 mM, Insulin 25 μg/ml, Transferin 100 μg/ml, Progestrone 20 nM, Putrescine 60 μM, Sodium selenite 30 nM, Heparin 2 μg/ml). Each well contained 1×10^5 SH-SY5Y cells in 300 μl of culture medium. Thirty minutes later, each well was treated with the test samples given in Table 1 respectively at a total concentration of 50 μg/ml for 24 hours. After that, the level of Aβ1-40 in the medium of each well was analyzed by Human Aβ1-40 immunoassay kits (Catalog #KHB3482 Invitrogen).
Human neuroblastoma SH-SY5Y cells cause extracellular accumulation of Aβ. […] The results were shown in mean ± standard deviation (SD) form. Significant difference between the Vehicle control group and the test sample-treated groups were indicated by * * * , P<0.001.

Human Aβ1-42 = Human Aβ1-42 (Homo sapiens, UniProt P05067); experiment: Effect of each test sample on Aβ1-42 oligomerization (thioflavin T fluorescence); type: biochemical; details: 50 μg/ml, 4° C., 24 hours, thioflavin T fluorescence (FIG. 2)
Human Aβ1-42, sequence (P05067 672-713 limits assumed): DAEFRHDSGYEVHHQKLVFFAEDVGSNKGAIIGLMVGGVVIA
Method: Dried Human Aβ1-42 was taken out from the refrigerator and equilibrated to room temperature. Aβ1-42 was dissolved in 1,1,1,3,3,3-Hexa-fluro-2-propanol (HFIP) to a concentration of 1 mM, and was then placed at room temperature for one hour. The Aβ1-42/HFIP solution was aliquoted by Hamilton syringe, and was then dried under a stream of nitrogen gas, followed by storing at a temperature of −20° C. Aβ1-42 treated with HFIP was dissolved in PBS, and was vibration-incubated with treatment of each test sample at a concentration of 50 μg/ml and at 4° C. for 24 hours to prepare Aβ1-42 oligomers. The level of Aβ1-42 oligomerization was analyzed by thioflavin T fluorescence (Ex=450 nm, Em=482 nm). […] That is to say, these pharmaceutical compositions can be used to prevent or treat Aβ-associated diseases or conditions.

activity on inhibiting Aβ1-42 oligomerization (in words) (Human Aβ1-42)	Structure (SMILES)	reduces the level of Aβ1-40 in the medium ([1]; total concentration of 50 μg/ml, 24 hours, based on Vehicle control group (FIG. 1))	activity on reducing extracellular Aβ1-40 accumulation (in words) ([1]; total 50 μg/ml, 24 hours (FIG. 1))
–	C[C@@H]1O[C@@H](O[C@@H]2[C@@H](O)[C@H](OCCc3ccc(O)c(O)c3)O[C@H](CO)[C@H]2OC(=O)/C=C/c2ccc(O)c(O)c2)[C@H](O)[C@H](O)[C@H]1O [A, Acteoside]	about 10%	–
better activity	C[C@@H]1O[C@@H](O[C@@H]2[C@@H](O)[C@H](OCCc3ccc(O)c(O)c3)O[C@H](COC(=O)/C=C/c3ccc(O)c(O)c3)[C@H]2O)[C@H](O)[C@H](O)[C@H]1O [I, Isoacteoside]	–	significant activity; also recorded: better activity
